We go through one molecule from patent publication US20060062739A1 (priority 2004, published 2006).

For series [1], the system named is subjects with severe asthma treated with oral corticosteroids. Description: Lidocaine for reducing concurrent corticosteroids in steroid dependent severe asthma (Example 7). The class given is in vivo, human. The note with it: interim, all patients past visit 7.
The subject of series [2] is mild to moderate asthma patients. The note with it: human, in vivo.

`CCN(CC)CC(=O)Nc1c(C)cccc1C` [lidocaine, acetamide 2-(diethylamino)-N-(2,6-dimethylphenyl)]: in series [1], the “relation of reported adverse events to treatment” value is given as “None of the reported adverse events were thought to be related to the lidocaine treatment”. Moreover, in series [2], the “bronchospasm (decrease in FEV1 >20% 30 min after aerosol administration)” value is “no reports of bronchospasm”; the “loss of gag reflex” value is given as “No loss of gag reflex was reported”; the “tolerability and safety overall” value was “no significant adverse events related to study drug”; the “tracheal aspiration of food or liquid” value was “No case of tracheal aspiration of food or liquid was reported”.
